Laboratory results: US8741951B2, “Non-steroidal compounds for androgen receptor modulation” (CNR—Consiglio Nazionale delle Ricerche, priority 2009, dated 2014)
Entries after “also recorded” stand apart in the source; their conditions may differ. Read-outs that look alike come from different tables or passages of the source.

What was measured:
[1] = system: LNCaP cells; test: SRB in vitro chemosensitivity assay, LNCaP; format: cell-based
Description: (§1) The cell lines were maintained as a monolayer at 37° C. and subcultured weekly. Culture medium was composed of RPMI 1640 supplemented with 10% fetal calf serum and 1% glutamine (Mascia Brunelli s.p.a., Milan, Italy). Cells were used in the exponential growth phase in all the experiments.
(§2) Compounds were dissolved in acetone or DMSO (AITES) ([…]) and stored at −20° C. The cell culture containing acetone at the highest concentration was used as the control.
(§3) Sulforhodamine B (SRB) assay was used according to the method by Skehan et al. (JNCI, 1990). Briefly, cells were collected by trypsinization, counted and plated at a density of 5,000 cells/well in 96-well flat-bottomed microtiter plates (100 μl of cell suspension/well). In the chemosensitivity assay, experiments were run in octuplicate, and each experiment was repeated three times. The optical density (OD) of cells was determined at a wavelength of 490 nm by a colorimetric plate reader.
(§4) If ODtreated is above ODzero, treatment has induced a cytostatic effect, whereas if ODtreated is below ODzero, cell killing has occurred. The ODzero depicts the cell number at the moment of drug addition, the ODcontrol reflects the cell number in untreated wells and the ODtreated reflects the cell number in treated wells on the day of the assay.
(§5) FIGS. 2-11 show the cytotoxic activity of the derivative compounds of the invention on the LNCaP and LNCaP-AR cell lines. The authors examined the antitumour activity of the compounds for which the synthesis is described above, in the hormone-sensitive prostate cancer cell line LNCaP and in its derivative cell line LNCaP-AR, expressing high level of AR and with hormone refractory prostate cancer (HRPC) features. The novel compounds were tested at the increasing concentrations of […], 0.2, 2.0, and 20.0 μM. The highest dose used was chosen on the basis of the clinically achievable peak plasma concentration reported in the literature for bicalutamide (Cockshott I D. Clin Pharmacokinet. 2004; 43(13): 855-78). After 144-hr exposure time the cytotoxic effect of the molecules was calculated according to the method of Monks et al. (Monks A, Scudiero D, Skehan P, et al. Feasibility of a high-flux anticancer drug screen using a diverse panel of cultured human tumor cell lines. J Natl Cancer Inst. 1991; 83: 757-66.)

[2] = system: DU145 cell line; test: SRB cytotoxicity, DU145; format: cell-based, human; conditions: DU145 (no AR), 144 h, up to 20 μM
Description: (§6) FIGS. 16-25: cytotoxic effect of compounds (R)-XXIII-2, (R)-XXIII-3, (R)-XXIII-4, (R)-XXIII-5, (R)-XXIII-6, (R)-XXIII-7, (R)-XXIII-8, (R)-XXIII-9, (R)-XXIII-10, (R)-XXIV-9 on PC-3 and DU-145 cell lines at different concentration (0.02, 0.2, 2, 20 μM) after 144 h exposure. On the x-axis is reported the concentration, while on the y-axis is reported the inhibition of the net growth (% net growth).
as §3, §4

[3] = biological target: T1, human androgen receptor (hAR) (Homo sapiens, UniProt P10275); test: hAR transactivation assay (ARE-luc) in Cos-7 cells; format: cell-based; conditions: for inhibition of R1881-induced AR transcriptional activation (antagonistic activity), in words: compound 10 μM with 10 nM R1881; for agonistic activity on AR transcription, in words: compound alone, 10 nM to 1 μM or 10 μM
T1 construct: expressed in transfected cells; host or cells: Cos-7
T1 sequence (P10275 1-920): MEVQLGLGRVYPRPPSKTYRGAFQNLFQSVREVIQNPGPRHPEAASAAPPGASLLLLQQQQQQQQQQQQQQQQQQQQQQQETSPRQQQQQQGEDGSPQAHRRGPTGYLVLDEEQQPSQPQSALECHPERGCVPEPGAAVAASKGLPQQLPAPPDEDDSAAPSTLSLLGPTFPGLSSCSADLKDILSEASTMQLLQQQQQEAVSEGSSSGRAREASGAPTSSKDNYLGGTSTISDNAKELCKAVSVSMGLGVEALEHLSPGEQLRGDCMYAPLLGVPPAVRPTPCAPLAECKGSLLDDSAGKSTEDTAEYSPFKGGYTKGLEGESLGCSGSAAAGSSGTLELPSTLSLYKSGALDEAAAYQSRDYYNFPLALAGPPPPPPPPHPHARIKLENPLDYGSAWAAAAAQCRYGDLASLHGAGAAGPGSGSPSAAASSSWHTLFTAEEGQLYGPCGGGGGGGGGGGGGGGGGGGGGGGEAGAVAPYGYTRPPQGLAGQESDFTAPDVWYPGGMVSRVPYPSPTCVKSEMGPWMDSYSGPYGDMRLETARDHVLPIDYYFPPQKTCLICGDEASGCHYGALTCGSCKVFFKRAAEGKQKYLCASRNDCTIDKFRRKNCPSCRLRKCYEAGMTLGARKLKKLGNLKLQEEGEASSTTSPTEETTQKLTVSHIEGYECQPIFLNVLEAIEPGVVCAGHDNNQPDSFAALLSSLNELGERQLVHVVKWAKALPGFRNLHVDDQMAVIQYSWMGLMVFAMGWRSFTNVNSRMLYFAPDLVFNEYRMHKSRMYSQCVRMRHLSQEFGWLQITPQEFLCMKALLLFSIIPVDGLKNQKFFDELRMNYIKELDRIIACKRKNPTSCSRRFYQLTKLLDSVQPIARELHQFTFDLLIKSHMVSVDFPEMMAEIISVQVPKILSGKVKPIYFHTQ
Description: The cDNA coding hAR was cloned into the pSG5 expression vector as reported previously [Chang, C. S., J. Kokontis, and S. T. Liao 1988 Molecular cloning of human and rat complementary DNA encoding androgen receptors Science 240:324-326].
The 3416 construct (ARE-Luc), containing four copies of the wild-type slp-HRE2 (5′-TGGTCAgccAGTTCT-3′) was cloned in the NheI site in pTK-TATA-Luc [Verrijdt, G., E. Schoenmakers, A. Haelens, B. Peeters, G. Verhoeven, W. Rombauts, and F. Claessens 2000 Change of specificity mutations in androgen selective enhancers J. Biol. Chem. 275:12298-12305].
For androgen-stimulated transcriptional analysis, 32×10^4 Cos-7 cells were plated in phenol red-free DMEM containing 5% charcoal-stripped serum. After 48 h, the cells were transfected by Superfect (Qiagen) with 0.3 μg of 3416-pTK-TATA-Luc construct, together with 1.5 μg of either pSG5-empty plasmid or pSG5-hAR expressing plasmid. […] When indicated, the synthetic compounds were added alone to the cell medium. […] It was dissolved in 0.001% (final concentration) ethanol. Control cells were treated with the vehicle alone. Lysates were prepared and the luciferase activity was measured using a luciferase assay system (Promega). The results were corrected using CH110-expressed beta-galactosidase activity (Amersham Biosciences) and luciferase activity was expressed as fold induction. Results were obtained from two or three different experiments, each performed in duplicate. Mean and SEM are shown.

[4] = system: LNCaP-AR cells; test: SRB in vitro chemosensitivity assay, LNCaP-AR; format: cell-based; conditions: for GI50: Homo sapiens, LNCaP/AR; for GI50 / cytotoxic effect (cytostatic / cytocidal), in words: 144 h; for LC50: LNCaP-AR cells, 144 h exposure; for LC50 / cytotoxic effect (cytostatic / cytocidal), in words: up to 20 μM; for cytotoxic effect (cytostatic / cytocidal), in words: LNCaP-AR
Description: as §1, §2, §3, §4, §5

[5] = system: PC-3 cell line; test: SRB cytotoxicity, PC-3; format: cell-based, human; conditions: PC-3 (no AR), 144 h, up to 20 μM
Description: as §6, §3, §4

[6] = system: human hepatoblastoma cell line HepG2; test: Cytotoxic activity on HepG2 (hepato-toxicity); format: cell-based; conditions: HepG2, up to highest concentration tested
Description: as §3, §4
FIG. 27-36 show the cytotoxic activity of the drugs on the human hepatoblastoma cell line HepG2. The authors evaluated in vitro the potential hepato-toxicity of some of the novel compounds on HepG2 cell line, a human hepatoblastoma cell line that retains the specialized function of normal hepatocytes [Knowles B B, Howe C C, Aden D P. Human hepatocellular carcinoma cell lines secretes the major plasma proteins and hepatitis B surface antigen. Science 1980, 209:497-499; Aden D P, Vogel A, Plortkin S, Damjanov I, Knowles B B. Controlled synthesis of HBS Ag in a differentiated human liver carcinoma-derived cell line. Nature, 1979, 282:615-616].

[7] = LNCaP cells, 144 h exposure, up to 20 μM

Row | SMILES | GI50 ([1]; Homo sapiens, LNCaP, 144 h) [µM] | LC50 [1, 7] | cytotoxic effect (cytostatic / cytocidal), in words ([1]; LNCaP, 144 h, up to 20 μM) | cytotoxic activity, in words [2] | inhibition of R1881-induced AR transcriptional activation (antagonistic activity), in words [3] | GI50 [4] [µM] | LC50 [4] | cytotoxic effect (cytostatic / cytocidal), in words [4] | cytotoxic activity, in words [5] | hepato-toxicity, in words [6] | LC50 ([1]; Homo sapiens, LNCaP, 144 h, read-out: LC50, LNCaP cells, 144 h exposure, up to 20 μM) [µM] | LC50 ([1]; read-out: LC50, LNCaP cells, 144 h exposure, up to 20 μM) [µM] | cytotoxic activity, in words ([2]; listed as (R)-XIII-5) | agonistic activity on AR transcription, in words [3] | cytotoxic activity, in words ([5]; listed as (R)-XIII-5)
1 | N#Cc1ccc(NC(=O)[C@](O)(Cc2ccc(F)cc2)CS(=O)(=O)c2ccc(F)cc2)cc1C(F)(F)F [(R)-XXIII-4] | 7 | n.r. | suppress completely the cell growth | negligible cytotoxic activity | A more pronounced inhibition | 7.5 | n.r. | suppress completely the cell growth | negligible cytotoxic activity | did not display toxicity |  |  |  |  | 
2 | N#Cc1ccc(NC(=O)[C@](O)(Cc2ccc(C(F)(F)F)cc2)CS(=O)(=O)c2ccc(F)cc2)cc1C(F)(F)F [(R)-XXIII-5] | 2 |  | cell killing activity |  | A more robust inhibition | 1.9 | n.r. | cell killing activity |  | did not display toxicity | 16.2 to 20 | 16.2 | negligible cytotoxic activity; also recorded: reduced cytotoxic propriety | do not exhibit agonistic activity | negligible cytotoxic activity; also recorded: reduced cytotoxic propriety
3 | N#Cc1ccc(NC(=O)[C@@](O)(CS(=O)(=O)c2ccc(F)cc2)c2ccccc2)cc1C(F)(F)F [(R)-XXIII-8] | 11.8 | n.r. | suppress completely the cell growth | negligible cytotoxic activity |  | 11.6 | n.r. | suppress completely the cell growth | negligible cytotoxic activity | did not display toxicity |  |  |  | does not increase the transcriptional activity of AR | 
